Experiments:
[1] = system: Bifidobacterium longum subsp. infantis ATCC 15697 strain; test: Agarotriose fermentation profile under test tube condition; format: cell-based; settings: 5 g/L agarotriose as carbon source
Method: In order to monitor fermentation products, a Bifidobacterium longum subsp. Infantis ATCC 15697 strain was cultured under a test tube condition.

[2] = system: crude enzyme solution of a Bifidobacterium longum subsp. infantis ATCC 15697 strain; test: Degradation experiment using crude enzyme solution; format: biochemical; settings: 2 mg/mL crude enzyme, 2 mg/mL substrate, 30° C., pH 7.0, 2 hours
Method: In order to confirm the metabolic pathway of agarotriose, an experiment was performed on a crude enzyme solution of a Bifidobacterium longum subsp. infantis ATCC 15697 strain. For this purpose, cells and the medium were separated by centrifugation (14,000 rpm, 5 minutes, 4° C.) of a culture solution of Bifidobacterium longum subsp. infantis ATCC 15697 cultured under an agarotriose condition. An extracellular crude enzyme was obtained by ammonium sulfate precipitation of a supernatant. Further, for a cell-free extract including an intracellular crude enzyme, a supernatant crude enzyme was obtained by re-suspending cells in a 20 mM Tris-HCl buffer, and then lysing the cells by sonication, and centrifuging the lysate. During the crude enzyme experiment, 2 mg/mL of the crude enzyme and 2 mg/mL of agarotriose as a substrate were used to perform a reaction under an enzymatic reaction condition of 30° C. and 200 rpm in a 20 mM Tris-HCl buffer (pH 7.0) for 2 hours.

[3] = system: B. kashiwanohense DSM 21854; test: Fermentation ability of agarotriose as single carbon source; format: cell-based
Method: (§1) In order to confirm whether agarotriose also had prebiotic effects on probiotic microorganisms other than a Bifidobacterium longum subsp. infantis ATCC 15697 strain, Bifidobacterium longum subsp. infantis ATCC 17930, Bifidobacterium longum subsp. infantis ATCC 15702, B. bifidum DSM 20082, and B. kashiwanohense DSM 21854 were cultured under agarotriose single carbon source conditions.

[4] = system: Bifidobacterium longum subsp. infantis ATCC 15702; test: as above; format: cell-based
Method: as §1

[5] = system: Bifidobacterium longum subsp. infantis ATCC 17930; test: as above; format: cell-based
Method: as §1

B. bifidum DSM 20082 = test: as above; format: cell-based
Method: as §1

[6] = system: Bifidobacterium longum subsp. infantis ATCC 15697 strain; test: Cell growth with each purified sugar as single carbon source (Bioscreen C); format: cell-based; settings: 5 g/L of each purified sugar, 37° C.
Method: In this case, as a culture composition, 10 g/L of BactoPeptone, 5 g/L of a yeast extract, 2 g/L of K2HPO4 anhydride, 5 g/L of Na acetate anhydride, 2 g/L of NH4 citrate tribasic, 0.2 g/L of Mg sulfate heptahydrate, 0.05 g/L of Mn sulfate, 1 mL/L of Tween 80 (polysorbate 80), 0.5 g/L of cysteine, and 5 g/L of each purified sugar were used and cultured at 37° C.

[7] = Stability test against artificial gastric juice; format: in vitro ADME; settings: 37° C., 3 hours, TLC and HPLC
Excerpt: In order to test whether agarotriose could reach the intestines without being degraded, agarotriose was reacted in artificial gastric juice for each time, and then it was confirmed whether agarotriose was degraded, using TLC and HPLC.

Row | agarotriose remained [7] [%] | Compound | fate of the sugar during fermentation [1] | degradation of the substrate by crude enzyme [2] | metabolism of agarotriose [3] | metabolism of agarotriose [4] | metabolism of agarotriose [5] | metabolism of agarotriose (B. bifidum DSM 20082) | fermentation (cell growth) of the sugar as single carbon source [6]
1 | – | OC[C@H]1OC(O)[C@H](O)[C@@H](O[C@@H]2O[C@H]3CO[C@@H]([C@@H]2O)[C@@H]3O)[C@H]1O (stereo partly shown) [neoagarobiose, reference compound] | secreted and accumulated outside the cells without being degraded in the cells any more | not exhibited | – | – | – | – | –
2 | ≥ 80 | OC[C@H]1O[C@@H](O[C@H]2[C@H]3OC[C@@H]2O[C@@H](O[C@@H]2[C@@H](O)[C@H](O)O[C@H](CO)[C@@H]2O)[C@H]3O)[C@H](O)[C@@H](O)[C@H]1O [agarotriose] | degraded agarotriose into galactose and neoagarobiose | degrading agarotriose into galactose and neoagarobiose occurred in the cell-free extract | metabolized agarotriose and degraded agarotriose into galactose and neoagarobiose | metabolized agarotriose and degraded agarotriose into galactose and neoagarobiose | metabolized agarotriose and degraded agarotriose into galactose and neoagarobiose | metabolized agarotriose and degraded agarotriose into galactose and neoagarobiose | selectively fermented

From US20220241349A1, “METHOD FOR PRODUCING MARINE ALGAE-DERIVED AGAROTRIOSE, AND USE THEREOF AS PREBIOTIC” (Korea University Research and Business Foundation, priority 2017, published 2022)
